The values that follow are results of earlier work, collected in paper PMC8745345, “Hydroxy Pentacyclic Triterpene Acid, Kaempferol, Inhibits the Human 5-Hydroxytryptamine Type 3A Receptor Activity” (International Journal of Molecular Sciences, 2022).

In the data set the test system is 5-HT3A. The following applies: cited from earlier work.

A word on the IC50: it is the concentration needed to halve the response being measured. Take `Cc1nccn1CC1CCc2c(c3ccccc3n2C)C1=O` (stereo not drawn) [ondansetron]: the mode of antagonism result is given as “competitive antagonist”. Besides, under “5-HT3 antagonist potency”, the IC50 was 4.9 nM. The “efficacy of antagonist against I5-HT(100uM) of 5-HT3A” value (serotonin 100 uM) is reported as roughly 100%.
